Results taken from patent publication US6632806B1, “Neurologically-active compounds” (The University of Sydney, priority 1997, dated 2003).
Where “and” joins values, the source holds several entries; their conditions need not be identical. Equal values may be shown once. Read-outs that look alike come from different tables or passages of the source. Marks after values point to notes of the source that are not given here. Blank lines part the entries; values can stand above or below the compound they belong to.

Experiments:
GABAA [1] = system: T1, GABAA; details: [3H]muscimol binding (Froestl et al, 1995a; 1995b), cited from earlier work; for IC50: read-out: GABAA receptor affinity, IC50
T1 construct: Activity at GABAA; other: Woodward et al, 1993; GABAA Kb; other: Ragozzino et al (1996); other: PMPA; source not given, column fo

[2] = biological target: human r1 receptors (GABAC receptors) (Homo sapiens, UniProt P24046); experiment: Two-electrode voltage clamp recording of human r1 GABAC receptors expressed in Xenopus oocytes; details: for Activation of the receptor by compound alone / Effect on GABA response when co-applied with GABA (1 μM): FIG. 1; for IC50: IC50 (concentration that inhibits 50% of the response produced by 1 μM GABA), 1 μM GABA; for Mode of antagonism: Schild analysis; for EC50: r1 receptors in Xenopus oocytes, clamped at −60 mV; for Effect as agonist or antagonist at GABAC receptors: screened at 100 μM
Experimental: The plasmid was linearized with XbaI and cRNA made using the “Message Machine” kit from Ambion Inc. (Austin, Tex., USA). 50 ng of cRNA was injected into defolliculated Stage V Xenopus oocytes. Two to seven days later, receptor activity was measured by two-electrode voltage clamp recording, using a Geneclamp 500 amplifier (Axon Instruments Inc., Foster City, Calif., USA) and a MacLab 2e recorder (ADInstruments, Sydney, NSW, Australia). […] For receptor activation measurements, the indicated concentrations of agonist and antagonist were added to ND96.

GABAB [3] = biological target: T2, GABAB (Rattus norvegicus, UniProt Q9Z0U4); set-up: from tissue; host or cells: rat cortical membranes / neocortical slices; values largely from the literature; details: [3H]CGP27492 binding (Froestl et al; Bittiger et al; Olpe et al); read-out: GABAB receptor affinity, IC50; cited from earlier work
Target sequence in this assay (Q9Z0U4 17-960 limits assumed): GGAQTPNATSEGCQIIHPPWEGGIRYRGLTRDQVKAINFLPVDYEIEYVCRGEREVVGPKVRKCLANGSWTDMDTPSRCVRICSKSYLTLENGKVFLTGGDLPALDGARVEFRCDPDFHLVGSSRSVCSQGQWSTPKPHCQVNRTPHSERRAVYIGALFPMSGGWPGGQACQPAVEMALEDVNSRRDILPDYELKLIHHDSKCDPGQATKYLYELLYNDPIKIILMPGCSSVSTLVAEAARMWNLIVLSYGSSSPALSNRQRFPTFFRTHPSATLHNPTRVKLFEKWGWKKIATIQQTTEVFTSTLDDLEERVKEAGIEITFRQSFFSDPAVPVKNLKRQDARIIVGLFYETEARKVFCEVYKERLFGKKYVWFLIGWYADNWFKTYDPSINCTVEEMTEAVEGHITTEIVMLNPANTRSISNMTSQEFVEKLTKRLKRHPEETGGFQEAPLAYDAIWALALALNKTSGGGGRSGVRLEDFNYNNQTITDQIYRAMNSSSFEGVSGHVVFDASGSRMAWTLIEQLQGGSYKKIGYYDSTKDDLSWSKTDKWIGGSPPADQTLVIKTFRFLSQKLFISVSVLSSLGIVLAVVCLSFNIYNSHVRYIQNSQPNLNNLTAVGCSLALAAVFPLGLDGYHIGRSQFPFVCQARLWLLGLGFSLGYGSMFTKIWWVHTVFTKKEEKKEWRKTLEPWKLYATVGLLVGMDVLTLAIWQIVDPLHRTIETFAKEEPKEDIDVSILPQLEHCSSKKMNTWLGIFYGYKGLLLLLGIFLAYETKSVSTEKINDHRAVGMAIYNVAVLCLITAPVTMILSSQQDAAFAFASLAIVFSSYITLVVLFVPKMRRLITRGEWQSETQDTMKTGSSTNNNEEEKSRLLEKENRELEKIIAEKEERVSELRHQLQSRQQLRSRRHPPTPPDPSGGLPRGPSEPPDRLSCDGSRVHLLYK
Target sequence in this assay (O88871 41-940 partner): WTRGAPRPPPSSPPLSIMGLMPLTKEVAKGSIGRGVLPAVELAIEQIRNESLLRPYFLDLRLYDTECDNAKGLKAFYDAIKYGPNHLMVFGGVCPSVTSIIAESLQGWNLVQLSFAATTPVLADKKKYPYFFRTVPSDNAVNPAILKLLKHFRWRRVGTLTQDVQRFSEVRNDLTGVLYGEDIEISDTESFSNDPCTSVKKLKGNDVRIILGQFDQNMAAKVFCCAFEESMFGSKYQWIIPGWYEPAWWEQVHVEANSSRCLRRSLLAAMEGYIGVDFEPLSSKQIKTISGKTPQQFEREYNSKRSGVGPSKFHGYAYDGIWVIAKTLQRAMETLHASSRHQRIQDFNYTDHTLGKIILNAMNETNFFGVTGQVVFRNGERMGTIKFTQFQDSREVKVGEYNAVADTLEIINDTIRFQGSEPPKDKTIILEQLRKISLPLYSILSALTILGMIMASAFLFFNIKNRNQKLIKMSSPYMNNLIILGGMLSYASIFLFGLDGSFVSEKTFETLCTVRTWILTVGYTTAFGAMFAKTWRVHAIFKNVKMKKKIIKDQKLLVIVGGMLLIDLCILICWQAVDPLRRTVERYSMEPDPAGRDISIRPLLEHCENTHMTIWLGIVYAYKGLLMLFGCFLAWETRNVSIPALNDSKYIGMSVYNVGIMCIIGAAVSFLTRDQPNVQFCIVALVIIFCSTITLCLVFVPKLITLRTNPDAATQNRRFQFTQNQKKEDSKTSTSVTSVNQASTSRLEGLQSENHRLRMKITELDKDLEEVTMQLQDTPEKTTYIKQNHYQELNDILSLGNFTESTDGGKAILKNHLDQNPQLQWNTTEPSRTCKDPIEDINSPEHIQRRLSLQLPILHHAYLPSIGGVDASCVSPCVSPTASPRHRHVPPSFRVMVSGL

human rho-2 receptors = human rho-2 receptors (Homo sapiens, UniProt P28476); experiment: Antagonist KB at human homo-oligomeric rho-2 GABAC receptors; format: cell-based; details: for Kb: human rho-2
GABAA [4] = biological target: T1, GABAA; experiment: Inhibition of [3H]muscimol binding using rat cortical membranes; details: PMPA; source not given, column footnote is [3H]muscimol binding; read-out: GABAA receptor affinity, IC50
GABAB [5] = biological target: T2, GABAB; experiment: Frequency of spontaneous discharges in neocortical slices, grease-gap recording; set-up: from tissue; host or cells: rat cortical membranes / neocortical slices; values largely from the literature; details: read-out: GABAB receptor affinity
Target sequence in this assay (Q9Z0U4 17-960 limits assumed): as the sequence (Q9Z0U4 17-960 limits assumed) above
Target sequence in this assay (O88871 41-940 partner): as the sequence (O88871 41-940 partner) above

chicks = experiment: Memory consolidation in chicks, anthranilate-coated bead discrimination; format: in vivo, chick
Experimental: This procedure trains each chick on anthranilate-coated red beads, which have a bitter taste. In the test, 120 min. after the initial exposure to the red bead each chick is presented with a blue and a red bead, and normally will avoid pecking at the red bead; the discrimination ratio measures how well it remembers to do this. Chicks trained on 100% anthranilate-coated beads produce a discrimination ratio better than 0.9, and drug-induced memory deficits can be detected in this group. However, chicks trained on 20% anthranilate-coated beads produce a discrimination ratio of around 0.6, and this group can be used to detect drug-induced memory enhancement. Drugs are delivered by two bilateral intracranial injections (10 μL each).

male Swiss mice = experiment: Elevated plus-maze memory test; format: in vivo
Experimental: In this assay mice are trained by placing them at the end of the open arm of the plus maze and allowing them to find the shelter of the closed arms. The time taken is measured as the ‘latency’. Immediately after the trial the mice are injected with the test drug or with a saline control. […]

GABAA [6] = system: T1, GABAA; details: Ragozzino et al (1996); cited from earlier work
GABAC (human r1) = biological target: T3, GABAC (human r1) (Homo sapiens, UniProt P24046); details: cited from earlier work
T3 construct: host or cells: Xenopus oocytes expressing human r1 mRNA

GABAB [7] = biological target: T2, GABAB; set-up: from tissue; host or cells: hippocampal slices (pyramidal neurons); details: bicuculline 20 μM; Ragozzino et al (1996); cited from earlier work
Target sequence in this assay (Q9Z0U4 20-960): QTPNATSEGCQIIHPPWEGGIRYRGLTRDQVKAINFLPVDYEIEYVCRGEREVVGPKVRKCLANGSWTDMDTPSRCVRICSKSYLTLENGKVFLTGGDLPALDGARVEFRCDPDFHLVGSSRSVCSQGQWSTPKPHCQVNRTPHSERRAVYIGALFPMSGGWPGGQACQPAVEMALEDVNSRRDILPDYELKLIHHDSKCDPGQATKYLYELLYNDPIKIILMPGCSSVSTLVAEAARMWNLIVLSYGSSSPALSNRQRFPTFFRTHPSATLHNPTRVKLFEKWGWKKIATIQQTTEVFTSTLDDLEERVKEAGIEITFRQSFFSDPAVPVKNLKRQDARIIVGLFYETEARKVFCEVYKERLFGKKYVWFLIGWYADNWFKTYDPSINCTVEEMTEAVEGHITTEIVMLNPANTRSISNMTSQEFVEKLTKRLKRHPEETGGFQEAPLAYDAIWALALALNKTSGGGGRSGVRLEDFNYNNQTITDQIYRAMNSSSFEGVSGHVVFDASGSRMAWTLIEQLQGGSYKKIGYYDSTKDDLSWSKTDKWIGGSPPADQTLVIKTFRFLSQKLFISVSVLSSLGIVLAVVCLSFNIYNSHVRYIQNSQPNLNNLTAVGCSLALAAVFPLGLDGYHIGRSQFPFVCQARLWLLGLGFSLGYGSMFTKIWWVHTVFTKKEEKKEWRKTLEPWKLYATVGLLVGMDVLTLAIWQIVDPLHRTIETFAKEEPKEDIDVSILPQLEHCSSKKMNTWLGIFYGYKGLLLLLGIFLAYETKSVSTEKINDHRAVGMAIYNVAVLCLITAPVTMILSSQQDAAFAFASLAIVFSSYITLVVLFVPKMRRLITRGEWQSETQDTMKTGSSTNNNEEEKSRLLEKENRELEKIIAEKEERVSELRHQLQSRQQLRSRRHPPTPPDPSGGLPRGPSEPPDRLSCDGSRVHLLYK
Target sequence in this assay (O88871 41-940 partner): as the sequence (O88871 41-940 partner) above

GABAA [8] = system: T1, GABAA; details: Na-independent [3H]GABA binding (Johnston et al, 1978); read-out: GABAA receptor affinity, IC50; cited from earlier work
GABAC receptors = details: Woodward et al, 1993, cited from earlier work; for Kd: Johnston, 1996b, read-out: KD (agonist); for Kb: read-out: KB (antagonist)
GABAA [9] = details: cited from earlier work
[10] = system: NMDA, benzodiazepine, quisqualate, kainate, muscarinic cholinergic, adrenergic, serotoninergic and histaminergic receptors; details: 1 mM; cited from earlier work
[11] = Murata et al, 1996, Ragozzino et al

T3 sequence (P24046 22-479): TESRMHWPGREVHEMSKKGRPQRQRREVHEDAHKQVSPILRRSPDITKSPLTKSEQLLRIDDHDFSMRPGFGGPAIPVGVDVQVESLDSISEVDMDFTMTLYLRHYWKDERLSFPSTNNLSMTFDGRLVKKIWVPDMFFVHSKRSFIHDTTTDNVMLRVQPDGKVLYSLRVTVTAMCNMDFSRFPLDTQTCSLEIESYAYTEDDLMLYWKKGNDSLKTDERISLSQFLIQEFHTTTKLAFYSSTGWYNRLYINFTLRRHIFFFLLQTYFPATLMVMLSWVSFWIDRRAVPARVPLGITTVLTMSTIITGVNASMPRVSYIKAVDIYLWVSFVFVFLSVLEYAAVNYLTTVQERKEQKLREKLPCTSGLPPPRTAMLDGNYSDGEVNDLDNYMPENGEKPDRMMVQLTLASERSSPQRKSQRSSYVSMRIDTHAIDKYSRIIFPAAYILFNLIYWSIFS
Sequence of human r1 receptors (GABAC receptors) (P24046 22-479): as above
Sequence of human rho-2 receptors (P28476 21-465): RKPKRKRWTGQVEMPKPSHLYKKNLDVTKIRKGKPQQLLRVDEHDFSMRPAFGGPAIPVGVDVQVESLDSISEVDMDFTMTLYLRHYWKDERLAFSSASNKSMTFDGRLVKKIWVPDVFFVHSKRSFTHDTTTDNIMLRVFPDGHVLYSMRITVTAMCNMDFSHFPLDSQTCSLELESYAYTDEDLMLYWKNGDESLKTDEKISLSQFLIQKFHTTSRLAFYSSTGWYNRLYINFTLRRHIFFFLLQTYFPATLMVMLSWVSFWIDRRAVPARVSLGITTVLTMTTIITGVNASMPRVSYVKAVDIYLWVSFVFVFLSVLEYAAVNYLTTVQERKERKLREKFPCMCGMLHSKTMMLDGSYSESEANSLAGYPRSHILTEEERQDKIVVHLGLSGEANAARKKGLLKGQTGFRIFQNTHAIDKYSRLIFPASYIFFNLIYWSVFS

SMILES: CP(=O)(O)/C=C\CN [CGP70523, [(Z)-3-aminopropen-1-yl]methylphosphinic acid]
IC50 (GABAA [1]): 242 µM
Activation of Cl− channel current by compound on its own [2]: did not activate any current on their own
nH (Hill Coefficient) [2]: 1.6 ± 0.1
Activation of the receptor by compound alone ([2]; 100 μM): do not activate the receptor
Effect on GABA response when co-applied with GABA (1 μM) ([2]; 100 μM): the GABA response is blocked or reduced
IC50 [2]: 38.9 µM and 38 µM
Mode of antagonism [2]: competitive antagonists
IC50 (GABAB [3]): 16 µM

Activation of Cl− channel current by compound on its own [2]: activated the Cl^− channel
nH (Hill Coefficient) [2]: 2.6 ± 0.2
SMILES: NCCCC(=O)O [GABA, γ-Aminobutyric acid]

SMILES: CP(=O)(O)C1CCNCC1 [PMPA, piperidine-4-(methyl)phosphinic acid]
Kb (human rho-2 receptors): 4.2 ± 0.2 µM
IC50 (GABAA [4]): > 100 µM
Kb [2]: 6 ± 1.2 µM
IC50 [2]: 6 µM
IC50 (GABAB [5]): > 1000 µM

SMILES: CP(=O)(O)C1=CCNCC1 [TPMPA]
Potency at blocking rho-2 receptors relative to rho-1 GABAC receptors (human rho-2 receptors; human homo-oligomeric receptors): an order of magnitude less potent
Kb (human rho-2 receptors): 15.6 ± 1.6 µM
Effect on memory (discrimination ratio) (chicks; 30 μM, intracranial injection, chicks trained with 20% anthranilate): enhances memory
Time of injection after training giving optimum effect (chicks; in vivo): ≤ 2.5 min
Effect on latency (male Swiss mice; 50 mg/Kg, repeat experiment, tested only after 14 days, Swiss mice from a different source): significantly reduced latency
Effect on latency (male Swiss mice; 200 mg/Kg, first experiment, 14 day test): significantly reduces the latency
Kb (GABAA [6]): 320 µM
Kd (GABAC (human r1); Murata et al, 1996, Ragozzino et al, 1996, read-out: KD, GABAC receptor antagonist activity): 2.1 µM
Selectivity as antagonist for GABAC receptors over GABAB receptors (GABAC (human r1); [11]): more than 100 fold
Selectivity at GABAC receptors over GABAA receptors (GABAC (human r1); [11]): 500 fold
Kb (GABAC (human r1); data from Murata et al, 1996): 2.1 µM
IC50 (GABAC (human r1); read-out: Concentration producing 50% inhibition of GABAC receptor activation): 2.1 µM
EC50 (GABAB [7]): ~500 µM
Kb [2]: 2 ± 0.4 µM

SMILES: NC/C=C/C(=O)O [TACA, trans-4-aminocrotonic acid]
IC50 (GABAA [8]): 0.14 µM
Kd (GABAC receptors): 0.6 µM
Activation of Cl− channel current by compound on its own [2]: activated the Cl^− channel
nH (Hill Coefficient) [2]: 2.4 ± 0.2
Maximal dose current as % of the maximal GABA activated current [2]: 95%
EC50 ([2]; read-out: EC50 (effective dose that activates 50% of the maximal current)): 0.44 ± 0.02 µM

SMILES: NC/C=C/[PH](=O)O [CGP38593, [(E)-3-aminopropen-1-yl]phosphinic acid]
IC50 (GABAA [1]): 6.8 µM
Activation of Cl− channel current by compound on its own [2]: did not activate any current on their own
Kb [2]: 15.5 ± 1.7 µM
Slope of Schild Plot [2]: 0.95
nH (Hill Coefficient) [2]: 1.8 ± 0.4
Activation of the receptor by compound alone ([2]; 100 μM): do not activate the receptor
Effect on GABA response when co-applied with GABA (1 μM) ([2]; 100 μM): the GABA response is blocked or reduced
IC50 [2]: 7.7 µM and 7.68 µM
Mode of antagonism [2]: competitive antagonists
nH of GABA curve in the presence of antagonist ([2]; [Antagonist] 30 μM): 2.7 ± 0.1
nH of GABA curve in the presence of antagonist ([2]; [Antagonist] 60 μM): 2.5 ± 0.4
nH of GABA curve in the presence of antagonist ([2]; [Antagonist] 100 μM): 3.0 ± 0.1

SMILES: NC[C@H](O)CP(=O)(O)CC1CCCCC1 [CGP51176, (2S)-3-amino-2-hydroxypropyl(cyclohexylmethyl)phosphinic acid]
Effect as agonist or antagonist at GABAC receptors [2]: no effect as either agonists or antagonists

SMILES: CCCCP(=O)(O)CCCN [CGP36742, (3-aminopropyl)-n-butylphosphinic acid]
IC50 (GABAA [9]): 500 µM
Effect at other receptor types [10]: no effect

SMILES: O=C(O)C1=CCNCC1 [Isoguvacine]
IC50 (GABAA [8]): 1.4 µM
EC50 (GABAC (human r1); data from Murata et al, 1996): 99 µM

SMILES: NCCC[PH](=O)O [CGP27492, 3-aminopropylphosphinic acid]
IC50 (GABAA [1]): 1.7 µM
Kb (GABAC receptors): 1.8 µM
Activation of Cl− channel current by compound on its own [2]: did not activate any current on their own
Kb [2]: 3.2 ± 1 µM
Slope of Schild Plot [2]: 0.99
nH (Hill Coefficient) [2]: 1.9 ± 0.2
IC50 [2]: 2.47 ± 0.04 µM
Mode of antagonism [2]: competitive antagonists
nH of GABA curve in the presence of antagonist ([2]; [Antagonist] 10 μM): 2.3 ± 0.1
nH of GABA curve in the presence of antagonist ([2]; [Antagonist] 30 μM): 2.4 ± 0.3
nH of GABA curve in the presence of antagonist ([2]; [Antagonist] 100 μM): 2.5 ± 0.2

SMILES: C[C@H](NC[C@@H](O)CP(=O)(O)Cc1ccccc1)c1ccc(Cl)c(Cl)c1 [CGP55845A]
Effect as agonist or antagonist at GABAC receptors [2]: no effect as either agonists or antagonists

SMILES: NCCCP(=O)(O)O [3-APA, 3-aminopropylphosphonic acid]
Kb (GABAC receptors): 10 µM

SMILES: NC/C=C\[PH](=O)O [CGP70522, [(Z)-3-aminopropen-1-yl]phosphinic acid]
IC50 (GABAA [1]): 6.6 µM
Activation of Cl− channel current by compound on its own [2]: did not activate any current on their own
Activation of the receptor by compound alone ([2]; 300 μM): do not activate the receptor
Effect on GABA response when co-applied with GABA (1 μM) ([2]; 300 μM): the GABA response is blocked or reduced
IC50 [2]: > 300 µM
Mode of antagonism [2]: competitive antagonists

SMILES: NC/C=C\C(=O)O [CACA, cis-4-aminocrotonic acid]
IC50 (GABAA [8]): 25 µM
Kd (GABAC receptors): 74 µM
Activation of Cl− channel current by compound on its own [2]: activated the Cl^− channel
nH (Hill Coefficient) [2]: 2.2 ± 0.3
EC50 ([2]; EC50 (effective dose that activates 50% of the maximal current)): 37.4 µM and 37 µM
Maximal dose current as % of the maximal GABA activated current [2]: 75%

SMILES: CCOC(OCC)P(=O)(O)CCCN [CGP35348, 3-aminopropyl(diethoxymethyl)phosphinic acid]
Effect as agonist or antagonist at GABAC receptors [2]: no effect as either agonists or antagonists

SMILES: CP(=O)(O)/C=C/CN [CGP44530, [(E)-3-Aminopropen-1-yl]methylphosphinic acid]
GABAA receptor affinity, IC50 (GABAA [1]): inactive at 100
Activation of Cl− channel current by compound on its own [2]: did not activate any current on their own
Kb [2]: 8.6 ± 1.6 µM
Slope of Schild Plot [2]: 1.01
nH (Hill Coefficient) [2]: 2.4 ± 0.5
Activation of the receptor by compound alone ([2]; 100 μM): do not activate the receptor
Effect on GABA response when co-applied with GABA (1 μM) ([2]; 100 μM): the GABA response is blocked or reduced
IC50 [2]: 5.5 µM and 5.53 µM
Mode of antagonism [2]: competitive antagonists
nH of GABA curve in the presence of antagonist ([2]; [Antagonist] 10 μM): 2.6 ± 0.2
nH of GABA curve in the presence of antagonist ([2]; [Antagonist] 30 μM): 3.0 ± 0.1
nH of GABA curve in the presence of antagonist ([2]; [Antagonist] 100 μM): 3.7 ± 0.4
IC50 (GABAB [3]): 0.65 µM

SMILES: NCCCP(=O)(O)CC1CCCCC1 [CGP46381, 3-aminopropyl(cyclohexylmethyl)phosphinic acid]
Effect as agonist or antagonist at GABAC receptors [2]: no effect as either agonists or antagonists

SMILES: CP(=O)(O)CCCN [CGP35024, (3-aminopropyl)methylphosphinic acid]
GABAA receptor affinity, IC50 (GABAA [1]): inactive at 10^k
Kb (GABAC receptors): 0.8 µM
Activation of Cl− channel current by compound on its own [2]: did not activate any current on their own
Kb [2]: 0.58 ± 0.14 µM
Slope of Schild Plot [2]: 1.14
nH (Hill Coefficient) [2]: 1.8 ± 0.1
IC50 [2]: 0.75 ± 0.07 µM
Mode of antagonism [2]: competitive antagonists
nH of GABA curve in the presence of antagonist ([2]; [Antagonist] 3 μM): 2.3 ± 0.1
nH of GABA curve in the presence of antagonist ([2]; [Antagonist] 10 μM): 2.2 ± 0.2
nH of GABA curve in the presence of antagonist ([2]; [Antagonist] 30 μM): 1.9 ± 0.2
